Common to all, as to assay type: biochemical
One assay has as its target T1, JAK1 kinase (Homo sapiens, UniProt P23458).
T1 construct: purchased Carna 08-144
The assay is described as follows: IC50 evaluation assay on JAK1 kinase inhibition (Caliper). Particulars: adenosine triphosphate at Km; 1 hour at 28° C.; average of two tests; read-out: IC50 (nM) inhibiting JAK 1 kinase. How it is done:
(§1) 1. The compound was dissolved in 100% DMSO, diluted into solutions with appropriate concentration gradients with water according to experimental requirement, and added to a 384-well plate.
(§2) 2. JAK2 kinase (Carna, Cat. No. 08-045, Lot. No. 07CBS-1927) and JAK3 kinase (Carna, Cat. No. 08-046, Lot. No. 08CBS-0371) were diluted to the optimum concentration with the following buffer solution: 50 mM HEPES, pH 7.5, 0.0015% Brij-35, 2 mM DTT. JAK1 kinase (Carna, Cat. No. 08-144, Lot. No. 11CBS-0144D) was diluted to the optimum concentration with the following buffer solution: 25 mM HEPES pH 7.5, 0.01% Brij-35, 2 mM DTT, 0.01M Triton. Transfer to the 384-well plate and incubated with the compound for a period of time.
(§3) 3. […] The substrate of JAK1 was diluted to the optimum concentration with the following buffer: 25 mM HEPES, pH 7.5, 0.01% Brij-35, 10 mM MgCl2, 0.01M Triton, adenosine triphosphate at Km. Add to the 384-well plate to initiate there action and react for 1 hour at 28° C.
(§4) 4. 1 Eq. of sulfuric acid solution was added to terminate the reaction, the conversion rate was read with Caliper Reader. The inhibition rate was calculated as the average of two tests.

The next assay concerns the target T2, JAK2 kinase (Homo sapiens, UniProt O60674).
T2 construct: purchased Carna 08-045
In words: IC50 evaluation assay on JAK2 kinase inhibition (Caliper). The note with it: adenosine triphosphate at Km; 1 hour at 28° C.; average of two tests; read-out: IC50 (nM) inhibiting JAK 2 kinase. Here is the method: as §1, §2, §3, §4

For the next assay, the target named is T3, JAK3 kinase (Homo sapiens, UniProt P52333).
T3 construct: purchased Carna 08-046
T3 sequence (P52333 1-1124): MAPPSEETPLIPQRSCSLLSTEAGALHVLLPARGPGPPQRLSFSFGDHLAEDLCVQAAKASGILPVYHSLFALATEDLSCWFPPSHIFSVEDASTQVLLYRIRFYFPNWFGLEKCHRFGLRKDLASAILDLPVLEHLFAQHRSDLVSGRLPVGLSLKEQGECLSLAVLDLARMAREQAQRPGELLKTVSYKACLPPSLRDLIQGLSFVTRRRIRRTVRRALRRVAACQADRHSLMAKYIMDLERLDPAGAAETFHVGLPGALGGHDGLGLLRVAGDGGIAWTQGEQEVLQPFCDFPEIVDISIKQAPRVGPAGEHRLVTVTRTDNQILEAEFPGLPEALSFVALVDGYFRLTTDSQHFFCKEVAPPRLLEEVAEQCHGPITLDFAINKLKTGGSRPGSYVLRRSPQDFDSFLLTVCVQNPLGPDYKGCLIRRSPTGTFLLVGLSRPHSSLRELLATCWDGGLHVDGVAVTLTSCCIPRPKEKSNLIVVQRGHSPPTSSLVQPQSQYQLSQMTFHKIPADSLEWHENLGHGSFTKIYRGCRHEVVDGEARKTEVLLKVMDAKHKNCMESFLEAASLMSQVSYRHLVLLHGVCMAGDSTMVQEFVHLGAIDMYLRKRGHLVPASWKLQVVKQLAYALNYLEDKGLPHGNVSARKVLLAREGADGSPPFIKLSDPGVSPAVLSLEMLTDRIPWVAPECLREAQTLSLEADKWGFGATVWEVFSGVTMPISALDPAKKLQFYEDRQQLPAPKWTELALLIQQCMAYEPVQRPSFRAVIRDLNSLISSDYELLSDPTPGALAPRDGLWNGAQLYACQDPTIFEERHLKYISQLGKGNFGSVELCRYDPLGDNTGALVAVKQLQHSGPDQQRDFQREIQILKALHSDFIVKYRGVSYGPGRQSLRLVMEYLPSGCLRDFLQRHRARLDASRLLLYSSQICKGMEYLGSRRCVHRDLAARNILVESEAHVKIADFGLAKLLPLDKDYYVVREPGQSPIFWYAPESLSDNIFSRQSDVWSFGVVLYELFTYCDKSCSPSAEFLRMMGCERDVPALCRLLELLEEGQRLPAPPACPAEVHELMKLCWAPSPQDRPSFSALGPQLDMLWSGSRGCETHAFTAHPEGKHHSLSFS
In words: IC50 evaluation assay on JAK3 kinase inhibition (Caliper). The note with it: adenosine triphosphate at Km; 1 hour at 28° C.; average of two tests; read-out: IC50 (nM) inhibiting JAK 3 kinase. How it is done: as §1, §2, §3, §4

T2 sequence (O60674 whole entry): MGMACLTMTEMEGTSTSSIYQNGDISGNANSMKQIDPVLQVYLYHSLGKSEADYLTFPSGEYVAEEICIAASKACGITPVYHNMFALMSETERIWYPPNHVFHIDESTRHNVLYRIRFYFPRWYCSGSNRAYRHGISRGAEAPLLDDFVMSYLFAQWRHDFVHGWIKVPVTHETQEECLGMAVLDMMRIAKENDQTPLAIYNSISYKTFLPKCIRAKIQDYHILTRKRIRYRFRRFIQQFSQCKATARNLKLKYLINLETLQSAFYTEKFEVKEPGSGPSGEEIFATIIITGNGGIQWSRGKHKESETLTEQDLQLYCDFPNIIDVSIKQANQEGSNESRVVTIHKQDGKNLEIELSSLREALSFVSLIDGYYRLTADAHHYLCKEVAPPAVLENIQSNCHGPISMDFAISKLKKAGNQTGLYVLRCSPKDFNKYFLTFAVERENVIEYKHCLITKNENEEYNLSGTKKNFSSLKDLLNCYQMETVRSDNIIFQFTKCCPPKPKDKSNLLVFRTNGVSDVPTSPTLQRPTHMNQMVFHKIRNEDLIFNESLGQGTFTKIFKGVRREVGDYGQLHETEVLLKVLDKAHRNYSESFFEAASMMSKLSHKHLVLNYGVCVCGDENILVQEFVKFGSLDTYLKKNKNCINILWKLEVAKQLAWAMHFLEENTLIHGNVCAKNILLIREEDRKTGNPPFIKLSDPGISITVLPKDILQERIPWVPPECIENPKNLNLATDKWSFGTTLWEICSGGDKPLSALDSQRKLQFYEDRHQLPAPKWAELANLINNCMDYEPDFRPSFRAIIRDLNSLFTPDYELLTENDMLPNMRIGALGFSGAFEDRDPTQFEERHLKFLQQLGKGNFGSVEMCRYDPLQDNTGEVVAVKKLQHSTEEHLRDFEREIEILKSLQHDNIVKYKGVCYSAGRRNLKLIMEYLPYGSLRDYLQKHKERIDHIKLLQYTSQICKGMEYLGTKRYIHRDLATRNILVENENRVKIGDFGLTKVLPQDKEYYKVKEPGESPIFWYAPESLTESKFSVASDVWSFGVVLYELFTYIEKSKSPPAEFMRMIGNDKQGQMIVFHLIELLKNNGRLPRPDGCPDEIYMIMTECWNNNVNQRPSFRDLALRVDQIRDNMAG
T1 sequence (P23458 whole entry): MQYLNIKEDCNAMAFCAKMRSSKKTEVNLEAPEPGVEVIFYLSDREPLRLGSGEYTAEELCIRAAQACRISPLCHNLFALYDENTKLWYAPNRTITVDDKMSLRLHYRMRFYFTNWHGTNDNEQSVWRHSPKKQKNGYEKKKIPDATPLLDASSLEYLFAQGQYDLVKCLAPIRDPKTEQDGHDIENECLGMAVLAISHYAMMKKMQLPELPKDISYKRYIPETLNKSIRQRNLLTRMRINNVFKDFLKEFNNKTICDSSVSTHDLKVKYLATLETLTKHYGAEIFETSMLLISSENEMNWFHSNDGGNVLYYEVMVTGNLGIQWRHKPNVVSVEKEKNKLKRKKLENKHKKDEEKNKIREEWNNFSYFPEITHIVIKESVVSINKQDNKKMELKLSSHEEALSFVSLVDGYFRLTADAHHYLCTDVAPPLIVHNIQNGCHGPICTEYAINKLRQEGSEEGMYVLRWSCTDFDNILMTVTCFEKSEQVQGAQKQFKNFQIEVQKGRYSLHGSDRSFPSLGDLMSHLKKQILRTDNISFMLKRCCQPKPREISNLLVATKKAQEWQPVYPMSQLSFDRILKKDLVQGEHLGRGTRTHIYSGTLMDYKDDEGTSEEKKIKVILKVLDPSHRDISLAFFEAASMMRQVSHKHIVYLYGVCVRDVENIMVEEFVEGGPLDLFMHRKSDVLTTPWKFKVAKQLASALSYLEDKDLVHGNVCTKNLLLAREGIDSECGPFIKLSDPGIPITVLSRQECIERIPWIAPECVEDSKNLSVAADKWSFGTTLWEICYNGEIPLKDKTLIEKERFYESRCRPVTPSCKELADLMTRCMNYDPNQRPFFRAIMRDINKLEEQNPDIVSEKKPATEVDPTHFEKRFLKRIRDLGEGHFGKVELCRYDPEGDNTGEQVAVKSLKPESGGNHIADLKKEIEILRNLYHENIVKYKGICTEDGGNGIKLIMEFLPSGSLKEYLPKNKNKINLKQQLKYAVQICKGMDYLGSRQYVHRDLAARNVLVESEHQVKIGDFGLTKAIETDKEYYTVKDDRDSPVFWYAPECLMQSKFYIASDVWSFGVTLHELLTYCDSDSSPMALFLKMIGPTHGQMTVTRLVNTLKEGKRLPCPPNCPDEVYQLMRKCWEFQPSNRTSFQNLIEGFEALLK

With `Cc1sc2cnc(Nc3cnn(C)c3)nc2c1-c1cccc2c1OCO2` [Compound 30, N-[7-(2H-1,3-benzodioxol-4-yl)-6-methylthieno[3,2-d]pyrimidinyl-2-yl]-1-methyl-1H-pyrazol-4-amine], the concentration for half-maximal inhibition (IC50) was 8.5 nM on JAK1 kinase, 1.9 nM at JAK2 kinase and 5.1 nM on JAK3 kinase.

As for `Cc1sc2cnc(Nc3cnn(C4CCNCC4)c3)nc2c1-c1cccc2c1OCC2` [Compound 32, N-[7-(2,3-dihyro-1-benzofuran-7-yl)-6-methylthieno[3,2-d]pyrimidinyl-2-yl]-1-(piperidinyl-4-yl)-1H-pyrazol-4-amine], the IC50 on JAK1 kinase came out at 6.6 nM; at JAK2 kinase, 0.79 nM; at JAK3 kinase it was 0.42 nM.

`Cc1sc2cnc(Nc3cnn(C)c3)nc2c1-c1ccccc1Cl` [Compound 33, N-[7-(2-chlorophenyl)-6-methylthieno[3,2-d]pyrimidinyl-2-yl]-1-methyl-1H-pyrazol-4-amine]: the concentration for half-maximal inhibition (IC50) on JAK1 kinase turned out to be 18.5 nM; at JAK2 kinase, 8.9 nM; at JAK3 kinase it was 12.9 nM.

On to `COc1ccccc1-c1c(C)sc2cnc(Nc3cnn(C4CCNCC4)c3)nc12` [Compound 35, N-[7-(2-methoxyphenyl)-6-methylthieno[3,2-d]pyrimidinyl-2-yl]-1-(piperidinyl-4-yl)-1H-pyrazol-4-amine], for which the figures for the IC50 on JAK1 kinase, at JAK2 kinase and on JAK3 kinase were 3.8 nM, 0.7 nM and 0.84 nM, respectively.

As to `Cc1sc2cnc(Nc3cnn(C4CCN(C(=O)CO)CC4)c3)nc2c1-c1cccc2c1OCC2` [Compound 36, 1-[4-(4-{[7-(2,3-dihydro-1-benzofuran-7-yl)-6-methylthieno[3,2-d]pyrimidinyl-2-yl]amino}-1H-pyrazol-1-yl)piperidinyl-1-yl]-2-hydroxyacetamide], the IC50 at JAK1 kinase is 13 nM; on JAK2 kinase, 0.82 nM; on JAK3 kinase, 0.41 nM.

For `Cc1sc2cnc(Nc3cnn(C4CCOCC4)c3)nc2c1-c1cccc2c1OCC2` [Compound 39, N-[7-(2,3-dihydro-1-benzofuran-7-yl)-6-methylthieno[3,2-d]pyrimidin-2-yl]-1-(tetrahydropyran-4-yl)-1H-pyrazol-4-amine], the IC50 turned out to be 18 nM at JAK1 kinase, 1.6 nM on JAK2 kinase and 0.71 nM at JAK3 kinase.

With `Cc1sc2cnc(Nc3cnn(C)c3)nc2c1-c1ccccc1N(C)C` [Compound 41, N-{7-[2-(dimethylamino)phenyl]-6-methylthieno[3,2-d]pyrimidin-2-yl}-1-methyl-1H-pyrazol-4-amine], the IC50 on JAK1 kinase turned out to be 41 nM; at JAK2 kinase it was 36 nM; at JAK3 kinase, 33.7 nM.

Turning to `COc1ccncc1-c1c(C)sc2cnc(Nc3cnn(C)c3)nc12` [Compound 42], the concentration for half-maximal inhibition (IC50) at JAK1 kinase came out at 47 nM; at JAK2 kinase it was 13 nM; on JAK3 kinase, 29 nM.

For the compound `COc1ncccc1-c1c(C)sc2cnc(Nc3cnn(C)c3)nc12` [Compound 43], the IC50 stood at 7.2 nM on JAK1 kinase, 1.7 nM at JAK2 kinase and 1 nM at JAK3 kinase.

Take `c1cc2c(c(-c3cccc4cnc(Nc5cnn(C6CCNCC6)c5)nc34)c1)OCC2` [Compound 44, 8-(2,3-Dihydro-1-benzofuran-7-yl)-N-[1-(4-piperidin)-1H-pyrazol-4-yl]quinazolin-2-amine]: the values for the IC50 on JAK1 kinase, at JAK2 kinase and at JAK3 kinase were 54 nM, 7.7 nM and 16 nM, respectively.

As to `COc1ccccc1-c1cccc2cnc(Nc3cnn(C4CCNCC4)c3)nc12` [Compound 45, 8-(2-Methoxyphenyl)-N-[1-(4-piperidinyl)-1H-pyrazol-4-yl]quinazolin-2-amine], the figures for the IC50 on JAK1 kinase, at JAK2 kinase and on JAK3 kinase were 2.4 nM, 5.8 nM and 1 nM, respectively.

In the case of `COc1ccccc1-c1cncc2cnc(Nc3cnn(C4CCNCC4)c3)nc12` [Compound 47, N-[8-(2-methoxyphenyl)pyridino[4,3-d]pyrimidin-2-yl]-1-(4-piperidin)-1H-pyrazol-4-amine], the IC50 is 58 nM at JAK1 kinase, 9.6 nM on JAK2 kinase and 3 nM at JAK3 kinase.

Regarding `COc1cc(S(C)(=O)=O)ccc1-c1c(C)sc2cnc(Nc3cnn(C4CCNCC4)c3)nc12` [Compound 48, N-[7-(4-methylsulfonyl-2-methoxyphenyl)-6-methylthieno[3,2-d]pyrimidin-2-yl]-1-(4-piperidin)-1H-pyrazol-4-amine], the results for the IC50 on JAK1 kinase, on JAK2 kinase and at JAK3 kinase were 4.2 nM, 0.51 nM and 1.3 nM, respectively.

Consider `COc1cc(S(C)(=O)=O)ccc1-c1cccc2cnc(Nc3cnn(C4CCNCC4)c3)nc12` [Compound 49, 8-(4-methylsulfonyl-2-methoxyphenyl)-N-[1-(4-piperidin)-1H-pyrazol-4-yl]quinazolin-2-amine], for which the half-maximal inhibitory concentration (IC50) on JAK1 kinase amounted to 58 nM; on JAK2 kinase, 2.1 nM; on JAK3 kinase, 9.8 nM.
